In general, inhibition refers to the relative decrease from the control value, in per cent.

Results on two compounds are retold here after ChEMBL document CHEMBL4507319 (2021).

In experiment [1] the target is T1, Ephrin type-A receptor 1 (Homo sapiens) (UniProt P21709).
T1 sequence (whole entry): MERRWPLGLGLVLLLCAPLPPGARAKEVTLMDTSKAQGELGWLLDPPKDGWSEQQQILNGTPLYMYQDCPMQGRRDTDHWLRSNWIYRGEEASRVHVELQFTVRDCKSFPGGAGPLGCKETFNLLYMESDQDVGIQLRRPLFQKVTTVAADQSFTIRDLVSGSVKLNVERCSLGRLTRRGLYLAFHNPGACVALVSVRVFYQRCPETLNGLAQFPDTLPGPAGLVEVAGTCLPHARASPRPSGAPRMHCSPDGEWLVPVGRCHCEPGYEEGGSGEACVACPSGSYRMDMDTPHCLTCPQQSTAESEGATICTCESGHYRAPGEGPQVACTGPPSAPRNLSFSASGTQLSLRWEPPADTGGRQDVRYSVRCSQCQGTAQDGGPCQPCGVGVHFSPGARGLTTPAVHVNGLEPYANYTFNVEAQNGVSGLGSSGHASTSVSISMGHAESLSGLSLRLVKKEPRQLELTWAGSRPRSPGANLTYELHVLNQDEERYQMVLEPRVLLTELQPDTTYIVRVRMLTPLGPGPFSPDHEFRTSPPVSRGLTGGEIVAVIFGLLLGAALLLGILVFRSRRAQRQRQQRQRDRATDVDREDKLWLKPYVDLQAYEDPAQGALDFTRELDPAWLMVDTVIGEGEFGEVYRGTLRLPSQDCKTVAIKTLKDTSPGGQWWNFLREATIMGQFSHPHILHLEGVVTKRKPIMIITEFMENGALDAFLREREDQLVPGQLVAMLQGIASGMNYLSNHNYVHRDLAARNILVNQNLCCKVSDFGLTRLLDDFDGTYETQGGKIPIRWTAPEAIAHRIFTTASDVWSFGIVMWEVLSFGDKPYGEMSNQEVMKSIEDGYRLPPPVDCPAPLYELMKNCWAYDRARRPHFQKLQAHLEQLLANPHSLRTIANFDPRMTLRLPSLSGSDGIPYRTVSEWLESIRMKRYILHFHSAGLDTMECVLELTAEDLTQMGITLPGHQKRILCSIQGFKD
The following applies: Compound concentration 1000.0 nM.

Experiment [2] concerns the target T2, Homeodomain-interacting protein kinase 4 (Homo sapiens) (UniProt Q8NE63).
T2 sequence (whole entry): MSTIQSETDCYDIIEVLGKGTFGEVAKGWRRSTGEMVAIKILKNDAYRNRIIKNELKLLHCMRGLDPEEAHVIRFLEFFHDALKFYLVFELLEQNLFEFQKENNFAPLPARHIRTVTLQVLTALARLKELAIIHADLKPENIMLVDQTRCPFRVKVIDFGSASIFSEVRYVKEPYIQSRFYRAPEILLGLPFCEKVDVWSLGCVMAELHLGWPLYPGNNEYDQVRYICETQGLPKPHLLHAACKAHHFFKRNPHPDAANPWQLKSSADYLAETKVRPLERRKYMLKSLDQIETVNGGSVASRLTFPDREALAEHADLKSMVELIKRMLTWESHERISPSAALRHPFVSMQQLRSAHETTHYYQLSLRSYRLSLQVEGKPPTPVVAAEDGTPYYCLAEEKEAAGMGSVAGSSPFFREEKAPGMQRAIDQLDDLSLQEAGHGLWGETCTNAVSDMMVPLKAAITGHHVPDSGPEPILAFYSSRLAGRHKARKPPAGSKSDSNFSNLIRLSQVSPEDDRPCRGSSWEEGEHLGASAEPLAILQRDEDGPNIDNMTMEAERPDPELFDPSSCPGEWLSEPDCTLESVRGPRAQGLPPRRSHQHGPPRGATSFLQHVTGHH
The following applies: Compound concentration 1000.0 nM.

Experiment [3] deals with Hepatocyte growth factor receptor (Homo sapiens), P08581 [M1250T]. The following applies: Compound concentration 1000.0 nM.
Experiment [4] has as its target T3, MAP kinase-activated protein kinase 5 (Homo sapiens) (UniProt Q8IW41).
T3 sequence (whole entry): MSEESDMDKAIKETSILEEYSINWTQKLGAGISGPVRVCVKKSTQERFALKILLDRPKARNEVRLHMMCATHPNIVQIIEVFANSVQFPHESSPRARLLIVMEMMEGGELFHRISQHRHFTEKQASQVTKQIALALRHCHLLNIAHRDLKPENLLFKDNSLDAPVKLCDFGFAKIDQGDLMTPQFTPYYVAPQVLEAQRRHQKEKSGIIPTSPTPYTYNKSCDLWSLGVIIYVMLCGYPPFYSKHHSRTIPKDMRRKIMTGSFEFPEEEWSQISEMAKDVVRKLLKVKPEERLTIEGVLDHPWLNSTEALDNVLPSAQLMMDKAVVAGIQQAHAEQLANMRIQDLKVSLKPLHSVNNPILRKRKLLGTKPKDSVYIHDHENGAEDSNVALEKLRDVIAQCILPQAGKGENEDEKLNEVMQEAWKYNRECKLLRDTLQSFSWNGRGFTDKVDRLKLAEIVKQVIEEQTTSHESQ
The following applies: Compound concentration 1000.0 nM.

The target of experiment [5] is Homeodomain-interacting protein kinase 3 (Homo sapiens) (UniProt Q9H422). The following applies: Compound concentration 1000.0 nM.
Chain of Homeodomain-interacting protein kinase 3 (Homo sapiens) (Q9H422 whole entry, looked up): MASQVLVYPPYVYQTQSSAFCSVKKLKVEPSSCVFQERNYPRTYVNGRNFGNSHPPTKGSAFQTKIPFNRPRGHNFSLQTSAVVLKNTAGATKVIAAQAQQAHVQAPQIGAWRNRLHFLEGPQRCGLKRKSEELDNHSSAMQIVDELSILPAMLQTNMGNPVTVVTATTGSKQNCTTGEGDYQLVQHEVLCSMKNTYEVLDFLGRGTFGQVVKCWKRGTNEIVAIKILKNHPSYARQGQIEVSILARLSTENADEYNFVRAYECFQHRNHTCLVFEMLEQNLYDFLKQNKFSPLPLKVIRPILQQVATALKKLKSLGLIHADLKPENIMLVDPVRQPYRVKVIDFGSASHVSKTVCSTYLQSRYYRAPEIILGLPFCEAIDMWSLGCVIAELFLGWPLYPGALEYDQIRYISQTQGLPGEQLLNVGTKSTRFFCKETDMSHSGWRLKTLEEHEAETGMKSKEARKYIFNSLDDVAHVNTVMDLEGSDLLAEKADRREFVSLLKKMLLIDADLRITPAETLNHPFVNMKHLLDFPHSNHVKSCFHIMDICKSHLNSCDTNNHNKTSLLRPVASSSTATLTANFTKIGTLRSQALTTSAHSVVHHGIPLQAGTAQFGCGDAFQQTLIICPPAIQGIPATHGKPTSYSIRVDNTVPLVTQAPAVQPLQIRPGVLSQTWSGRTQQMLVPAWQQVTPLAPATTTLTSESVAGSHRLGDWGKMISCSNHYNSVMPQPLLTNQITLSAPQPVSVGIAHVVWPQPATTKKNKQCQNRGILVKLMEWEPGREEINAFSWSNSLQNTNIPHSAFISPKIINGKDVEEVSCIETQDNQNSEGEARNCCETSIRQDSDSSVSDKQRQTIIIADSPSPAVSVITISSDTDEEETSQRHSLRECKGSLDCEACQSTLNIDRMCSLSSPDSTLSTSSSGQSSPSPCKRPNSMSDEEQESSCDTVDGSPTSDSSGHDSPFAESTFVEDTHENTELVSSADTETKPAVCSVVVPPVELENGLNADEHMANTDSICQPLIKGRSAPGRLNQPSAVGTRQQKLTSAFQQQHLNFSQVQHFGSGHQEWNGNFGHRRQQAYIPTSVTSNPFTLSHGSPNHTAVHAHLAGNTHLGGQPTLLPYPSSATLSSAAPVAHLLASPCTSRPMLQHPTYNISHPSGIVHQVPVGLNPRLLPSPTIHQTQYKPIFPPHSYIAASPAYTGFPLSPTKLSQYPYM
The target in experiment [6] is Proto-oncogene tyrosine-protein kinase Src (Homo sapiens) (UniProt P12931). The following applies: Compound concentration 1000.0 nM.
Chain of Proto-oncogene tyrosine-protein kinase Src (Homo sapiens) (P12931 2-536 limits assumed): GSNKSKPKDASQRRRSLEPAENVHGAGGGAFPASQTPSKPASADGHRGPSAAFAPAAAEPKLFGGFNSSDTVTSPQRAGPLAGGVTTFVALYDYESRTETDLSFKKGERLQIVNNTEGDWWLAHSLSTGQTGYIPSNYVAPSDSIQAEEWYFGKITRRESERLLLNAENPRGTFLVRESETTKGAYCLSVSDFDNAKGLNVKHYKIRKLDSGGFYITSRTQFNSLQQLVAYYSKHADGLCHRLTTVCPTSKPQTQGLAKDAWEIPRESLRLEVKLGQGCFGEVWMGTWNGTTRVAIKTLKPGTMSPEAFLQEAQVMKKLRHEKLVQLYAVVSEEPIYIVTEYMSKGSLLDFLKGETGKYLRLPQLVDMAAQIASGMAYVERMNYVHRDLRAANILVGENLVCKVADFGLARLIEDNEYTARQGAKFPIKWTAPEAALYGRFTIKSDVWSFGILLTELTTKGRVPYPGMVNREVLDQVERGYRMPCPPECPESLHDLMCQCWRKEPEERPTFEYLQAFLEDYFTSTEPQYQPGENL
For experiment [7], the system named is Tyrosine-protein kinase ABL1 (Homo sapiens), P00519 [Y253F]. The following applies: Compound concentration 1000.0 nM.
For experiment [8], the system named is Proto-oncogene tyrosine-protein kinase receptor Ret (Homo sapiens), P07949 [V804M]. The following applies: Compound concentration 1000.0 nM.
Chain of Proto-oncogene tyrosine-protein kinase receptor Ret (Homo sapiens), P07949 [V804M] (P07949 whole entry V804M): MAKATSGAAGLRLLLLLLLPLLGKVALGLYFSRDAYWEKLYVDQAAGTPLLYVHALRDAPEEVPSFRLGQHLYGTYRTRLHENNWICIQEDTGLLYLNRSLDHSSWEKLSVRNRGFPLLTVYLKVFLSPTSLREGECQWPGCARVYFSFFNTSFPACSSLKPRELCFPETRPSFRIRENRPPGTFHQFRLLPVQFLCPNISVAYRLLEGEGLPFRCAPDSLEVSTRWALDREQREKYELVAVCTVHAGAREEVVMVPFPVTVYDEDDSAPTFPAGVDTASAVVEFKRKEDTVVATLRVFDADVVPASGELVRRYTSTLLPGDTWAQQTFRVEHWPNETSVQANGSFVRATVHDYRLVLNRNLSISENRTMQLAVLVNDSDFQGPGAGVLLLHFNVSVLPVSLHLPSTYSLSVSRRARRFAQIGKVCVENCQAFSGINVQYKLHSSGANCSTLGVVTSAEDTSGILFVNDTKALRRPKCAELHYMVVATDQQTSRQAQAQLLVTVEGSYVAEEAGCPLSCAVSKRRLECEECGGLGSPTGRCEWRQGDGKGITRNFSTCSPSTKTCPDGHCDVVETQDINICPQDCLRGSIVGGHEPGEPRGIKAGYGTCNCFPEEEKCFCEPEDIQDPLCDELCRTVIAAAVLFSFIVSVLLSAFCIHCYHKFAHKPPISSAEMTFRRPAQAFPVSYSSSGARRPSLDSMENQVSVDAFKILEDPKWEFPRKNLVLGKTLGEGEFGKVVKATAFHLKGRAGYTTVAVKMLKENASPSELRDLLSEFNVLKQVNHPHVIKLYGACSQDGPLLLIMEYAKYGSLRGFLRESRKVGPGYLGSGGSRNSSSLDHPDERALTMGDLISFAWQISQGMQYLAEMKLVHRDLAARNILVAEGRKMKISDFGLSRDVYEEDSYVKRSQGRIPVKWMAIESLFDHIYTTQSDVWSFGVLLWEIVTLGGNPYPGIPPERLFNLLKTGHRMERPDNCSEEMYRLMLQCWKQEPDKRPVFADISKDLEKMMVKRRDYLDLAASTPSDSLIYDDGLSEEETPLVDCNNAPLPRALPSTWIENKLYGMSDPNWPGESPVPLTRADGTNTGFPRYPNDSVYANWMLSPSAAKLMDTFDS
Experiment [9] deals with Tyrosine-protein kinase Fyn (Homo sapiens) (UniProt P06241). The following applies: Compound concentration 1000.0 nM.
Experiment [10] deals with 5-hydroxytryptamine receptor 7 (Homo sapiens) (UniProt P34969). The following applies: Compound concentration 10.0 uM.
Chain of 5-hydroxytryptamine receptor 7 (Homo sapiens) (P34969 whole entry): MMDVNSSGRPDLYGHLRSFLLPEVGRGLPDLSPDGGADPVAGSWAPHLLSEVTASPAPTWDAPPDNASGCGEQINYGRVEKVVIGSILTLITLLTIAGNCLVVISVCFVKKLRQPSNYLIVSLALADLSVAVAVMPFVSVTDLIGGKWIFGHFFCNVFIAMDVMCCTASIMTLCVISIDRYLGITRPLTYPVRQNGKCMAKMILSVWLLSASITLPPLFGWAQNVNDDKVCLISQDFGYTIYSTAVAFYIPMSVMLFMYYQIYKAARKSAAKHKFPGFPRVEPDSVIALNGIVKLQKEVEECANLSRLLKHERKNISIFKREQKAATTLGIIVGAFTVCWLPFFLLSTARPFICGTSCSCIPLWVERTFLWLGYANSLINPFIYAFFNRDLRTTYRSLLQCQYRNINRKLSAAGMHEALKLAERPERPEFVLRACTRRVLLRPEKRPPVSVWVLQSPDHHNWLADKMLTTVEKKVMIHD
The target in experiment [11] is 3-phosphoinositide-dependent protein kinase 1 (Homo sapiens) (UniProt O15530). The following applies: Compound concentration 1000.0 nM.
Experiment [12] concerns Tyrosine-protein kinase ABL1 (Homo sapiens), P00519 [E255K]. The following applies: Compound concentration 1000.0 nM.
For experiment [13], the target named is Muscarinic acetylcholine receptor M3 (Homo sapiens) (UniProt P20309). The following applies: Compound concentration 10.0 uM.
Chain of Muscarinic acetylcholine receptor M3 (Homo sapiens) (P20309 whole entry, looked up): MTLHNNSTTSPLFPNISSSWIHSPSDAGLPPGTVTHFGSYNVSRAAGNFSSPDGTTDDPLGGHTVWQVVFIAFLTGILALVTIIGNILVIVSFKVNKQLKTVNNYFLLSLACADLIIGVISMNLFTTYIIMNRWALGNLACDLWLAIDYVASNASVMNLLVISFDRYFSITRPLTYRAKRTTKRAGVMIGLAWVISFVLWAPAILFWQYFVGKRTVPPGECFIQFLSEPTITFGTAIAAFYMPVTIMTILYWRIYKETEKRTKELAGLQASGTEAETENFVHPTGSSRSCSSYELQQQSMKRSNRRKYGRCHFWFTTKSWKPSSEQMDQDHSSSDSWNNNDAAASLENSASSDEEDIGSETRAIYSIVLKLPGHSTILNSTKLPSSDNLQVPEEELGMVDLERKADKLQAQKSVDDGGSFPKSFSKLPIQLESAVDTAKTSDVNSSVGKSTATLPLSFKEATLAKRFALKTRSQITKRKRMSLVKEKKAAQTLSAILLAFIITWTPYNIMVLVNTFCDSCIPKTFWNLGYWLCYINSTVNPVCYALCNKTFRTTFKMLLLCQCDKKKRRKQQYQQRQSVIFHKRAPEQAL
Experiment [14] concerns the target Muscarinic acetylcholine receptor M4 (Homo sapiens) (UniProt P08173). The following applies: Compound concentration 10.0 uM.
Experiment [15] concerns the target 5-hydroxytryptamine receptor 1B (Homo sapiens) (UniProt P28222). The following applies: Compound concentration 10.0 uM.
In experiment [16] the target is Dual specificity tyrosine-phosphorylation-regulated kinase 1B (Homo sapiens) (UniProt Q9Y463). The following applies: Compound concentration 1000.0 nM.
The target in experiment [17] is Serine/threonine-protein kinase Nek4 (Homo sapiens) (UniProt P51957). The following applies: Compound concentration 1000.0 nM.
Chain of Serine/threonine-protein kinase Nek4 (Homo sapiens) (P51957 whole entry, looked up): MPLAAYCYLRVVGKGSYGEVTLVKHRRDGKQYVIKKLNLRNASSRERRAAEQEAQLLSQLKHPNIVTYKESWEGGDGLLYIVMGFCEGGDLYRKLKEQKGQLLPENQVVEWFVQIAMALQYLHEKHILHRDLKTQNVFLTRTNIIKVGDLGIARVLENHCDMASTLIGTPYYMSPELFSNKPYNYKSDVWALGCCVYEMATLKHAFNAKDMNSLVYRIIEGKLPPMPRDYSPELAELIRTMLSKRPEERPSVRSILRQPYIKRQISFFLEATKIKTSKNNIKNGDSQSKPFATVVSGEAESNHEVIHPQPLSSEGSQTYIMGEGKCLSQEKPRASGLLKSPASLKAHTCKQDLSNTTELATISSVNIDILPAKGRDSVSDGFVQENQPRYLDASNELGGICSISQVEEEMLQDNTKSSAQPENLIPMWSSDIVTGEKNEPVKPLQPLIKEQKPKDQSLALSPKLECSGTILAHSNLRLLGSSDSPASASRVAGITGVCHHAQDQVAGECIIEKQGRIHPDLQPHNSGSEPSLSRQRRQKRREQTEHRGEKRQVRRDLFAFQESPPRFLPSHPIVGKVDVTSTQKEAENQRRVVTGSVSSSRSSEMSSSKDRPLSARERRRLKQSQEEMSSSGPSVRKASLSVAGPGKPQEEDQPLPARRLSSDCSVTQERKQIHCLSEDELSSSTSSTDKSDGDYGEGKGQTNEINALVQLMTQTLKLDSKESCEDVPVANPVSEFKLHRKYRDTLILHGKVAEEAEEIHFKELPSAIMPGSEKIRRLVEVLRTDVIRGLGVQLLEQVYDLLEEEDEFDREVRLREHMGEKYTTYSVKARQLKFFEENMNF

For the compound `CC1=C(C#N)C(c2ccc3c(c2)c(NC(=O)c2ccccc2C)nn3C)C(C#N)=C(C)N1` [BAY-974], the residual activity was 88% in [1]; 80% in experiment [2]; 27% in [3]; 100% in experiment [4]; 73% in [5]; 89% in [6]. Moreover, the residual activity was 82% in [7]; 91% in [8]; 100% in experiment [9]; 77% in [11]; 63% in experiment [12]; 63% in experiment [16]. Also, in experiment [17], the residual activity is 100%. Moreover, the inhibition in [10] was 6.72%; in [13], 9.49%; in experiment [14] it was 6.87%; in experiment [15], 4.12%.
Regarding `CCc1ccccc1C(=O)Nc1n[nH]c2c(C)c(F)c(C3C(C#N)=C(C)N(C)C(C)=C3C#N)cc12` [BAY-3827], the residual activity in experiment [1] is 60%; in experiment [2], 100%; in [3], 25%; in experiment [4], 100%; in experiment [5] it was 100%; in experiment [6], 94%. In addition, the residual activity in experiment [7] is 85%; in experiment [8] it was 11%; in experiment [9] it was 100%; in [11] it was 86%; in experiment [12] it was 88%; in [16], 100%. Moreover, the residual activity in experiment [17] was 100%. Further, the inhibition is 13.9% in [10], 22.5% in [13], 8.27% in experiment [14] and 9.48% in experiment [15].
